The text below walks through data of ChEMBL document CHEMBL4190222, “Sulawesins A-C, Furanosesterterpene Tetronic Acids That Inhibit USP7, from a Psammocinia sp. Marine Sponge” (J Nat Prod, 2017).

pIC50: −log10 of the molar value. The source made the active and inactive calls. No cut-off for these calls is given here.

Test [1] addresses T1, Ubiquitin carboxyl-terminal hydrolase 7 (Homo sapiens, UniProt Q93009). In words: Inhibition of recombinant His6-tagged human USP7 expressed in insect expression system […] using ubiquitin-Rh110 as substrate preincubated for 30 mins followed by substrate addition measured after 180 mins by fluorescence assay.
Target sequence in this assay (Q93009 whole entry, looked up): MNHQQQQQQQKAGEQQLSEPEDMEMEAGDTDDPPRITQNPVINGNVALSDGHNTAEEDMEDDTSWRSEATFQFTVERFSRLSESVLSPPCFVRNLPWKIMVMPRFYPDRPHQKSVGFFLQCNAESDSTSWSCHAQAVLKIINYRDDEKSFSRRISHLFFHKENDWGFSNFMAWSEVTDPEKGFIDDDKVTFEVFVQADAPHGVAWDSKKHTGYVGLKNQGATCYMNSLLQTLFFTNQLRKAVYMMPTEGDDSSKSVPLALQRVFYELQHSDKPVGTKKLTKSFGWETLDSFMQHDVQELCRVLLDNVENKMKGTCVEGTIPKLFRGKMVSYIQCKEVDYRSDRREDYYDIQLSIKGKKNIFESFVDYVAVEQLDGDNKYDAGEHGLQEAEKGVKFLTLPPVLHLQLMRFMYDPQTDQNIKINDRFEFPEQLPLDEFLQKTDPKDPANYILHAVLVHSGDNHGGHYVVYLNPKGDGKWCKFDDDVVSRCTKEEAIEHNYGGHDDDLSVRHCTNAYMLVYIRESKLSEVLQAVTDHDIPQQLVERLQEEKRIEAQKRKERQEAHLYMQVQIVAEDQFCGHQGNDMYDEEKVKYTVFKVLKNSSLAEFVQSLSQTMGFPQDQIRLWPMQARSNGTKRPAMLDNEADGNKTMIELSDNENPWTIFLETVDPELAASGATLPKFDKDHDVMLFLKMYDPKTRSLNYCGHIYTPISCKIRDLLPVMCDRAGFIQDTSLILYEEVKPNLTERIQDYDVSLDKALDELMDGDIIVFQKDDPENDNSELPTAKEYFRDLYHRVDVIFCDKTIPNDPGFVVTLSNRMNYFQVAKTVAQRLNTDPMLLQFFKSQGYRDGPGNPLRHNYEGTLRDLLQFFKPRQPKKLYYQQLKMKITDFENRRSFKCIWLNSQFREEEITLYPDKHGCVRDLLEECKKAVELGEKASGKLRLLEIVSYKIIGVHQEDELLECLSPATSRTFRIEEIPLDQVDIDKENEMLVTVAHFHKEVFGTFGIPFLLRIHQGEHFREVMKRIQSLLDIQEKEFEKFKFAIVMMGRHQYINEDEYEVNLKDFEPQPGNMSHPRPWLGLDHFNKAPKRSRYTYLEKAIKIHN
The target in test [2] is T1, Ubiquitin carboxyl-terminal hydrolase 7. In words: Inhibition of recombinant His6-tagged human USP7 expressed in insect expression system using ubiquitin-Rh110 as substrate preincubated for 30 mins followed by substrate addition measured after 180 mins by fluorescence assay.
Target sequence in this assay (Q93009 whole entry): as the sequence (Q93009 whole entry, looked up) above

In the case of `CCN1C(=O)C=CC1=O`, in test [1], the inhibition result was “Active”.

The pIC50 is the IC50 on a negative log10 scale, so that one unit is a factor of ten. Turning to `CC1=C(O)/C(=C/C(C)CC/C=C(/C)CCCC2=CC(=O)[C@@H](c3ccoc3)[C@@H]2O)OC1=O` (mixture of isomers), in test [2], the pIC50 was 5.34.

`CC1=C(O)/C(=C/C(C)CCC/C(C)=C/CCC2=CC(=O)[C@@H](c3ccoc3)[C@@H]2O)OC1=O` (mixture of isomers): the pIC50 in test [2] is 5.55. For `CC1=C(O)/C(=C/C(C)CC/C=C(/C)CCCc2coc(Cc3ccoc3)c2)OC1=O` (mixture of isomers), in test [2], the pIC50 is 5.46. With `CC1=C(O)/C(=C/C(C)CCC/C(C)=C/CCc2coc(Cc3ccoc3)c2)OC1=O` (racemic), the pIC50 in test [2] is 5.57.
